Assays:
Format in all cases: in vivo
[1] = test system: velvetleaf (Abutilon theophrasti); assay: Test C; design: key: 0 was no effect; 100 was complete control; conditions: PREEMERGENCE
[2] = test system: arrowleaf sida (Sida rhombifolia); assay: Test C; design: key: 0 was no effect; 100 was complete control; conditions: PREEMERGENCE
[3] = test system: common ragweed (Ambrosia elatior); assay: Test C; design: key: 0 was no effect; 100 was complete control; conditions: PREEMERGENCE
[4] = test system: large crabgrass (Digitaria sanguinalis); assay: Test C; design: key: 0 was no effect; 100 was complete control; conditions: PREEMERGENCE
[5] = test system: goosegrass (Eleusine indica); assay: Test E pre-/postemergence/post directed; design: key: 0 is no effect; 100 is complete control
How it was run: (§1)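 Injury scored visually on a 0–100 scale (100 = complete control) 13 to 21 days after treatment. Test chemicals, formulated with surfactant in non-phytotoxic solvent, were applied to soil within one day of planting, to plants at two to four leaves (three to twenty cm), or as directed spray at plant base.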

[6] = test system: guineagrass (Panicum maximum); assay: Test E pre-/postemergence/post directed; design: key: 0 is no effect; 100 is complete control
How it was run: as §1

[7] = test system: dallisgrass (Paspalum dilatatum); assay: Test E pre-/postemergence/post directed; design: key: 0 is no effect; 100 is complete control
How it was run: as §1

[8] = test system: common ragweed (Ambrosia elatior); assay: Test E pre-/postemergence/post directed; design: key: 0 is no effect; 100 is complete control; conditions: PREEMERGENCE
How it was run: as §1

[9] = test system: ladysthumb smartweed (Polygonum persicaria); assay: Test C; conditions: PREEMERGENCE, Rate 70 g/ha
[10] = test system: fall panicum (Panicum dichotomiflorum); assay: Test C; design: key: 0 was no effect; 100 was complete control; conditions: PREEMERGENCE

Cc1cnc(-n2ccc(C(F)(F)F)n2)nc1Cc1cccc(C(F)(F)F)c1 [Example 2, 5-methyl-4-[[3-(trifluoromethyl)phenyl]methyl]-2-[3-(trifluoromethyl)-1H-pyrazol-1-yl]pyrimidine]
Plant response rating, Velvetleaf ([1]; Rate 35 g/ha): 0
Plant response rating, Velvetleaf ([1]; Rate 70 g/ha): 5
Plant response rating, Velvetleaf ([1]; Rate 140 g/ha): 50
Plant response rating, Arrowleaf sida ([2]; Rate 35 g/ha): 10
Plant response rating, Arrowleaf sida ([2]; Rate 70 g/ha): 20
Plant response rating, Arrowleaf sida ([2]; Rate 140 g/ha): 100
Plant response rating, Common ragweed ([3]; Rate 35 g/ha): 0
Plant response rating, Common ragweed ([3]; Rate 70 g/ha): 0
Plant response rating, Common ragweed ([3]; Rate 140 g/ha): 50
Plant response rating, Large crabgrass ([4]; Rate 35 g/ha): 0
Plant response rating, Large crabgrass ([4]; Rate 70 g/ha): 5
Plant response rating, Large crabgrass ([4]; Rate 140 g/ha): 100
Plant response rating, Goosegrass ([5]; POSTEMERGENCE, Rate 32 g/ha): 60
Plant response rating, Goosegrass ([5]; POSTEMERGENCE, Rate 64 g/ha): 75
Plant response rating, Goosegrass ([5]; POSTEMERGENCE, Rate 250 g/ha): 90
Plant response rating, Goosegrass ([5]; POSTEMERGENCE, Rate 500 g/ha): 95
Plant response rating, Goosegrass ([5]; PREEMERGENCE, Rate 32 g/ha): 95
Plant response rating, Goosegrass ([5]; PREEMERGENCE, Rate 64 g/ha): 100
Plant response rating, Goosegrass ([5]; PREEMERGENCE, Rate 125 g/ha): 100
Plant response rating, Goosegrass ([5]; PREEMERGENCE, Rate 250 g/ha): 100
Plant response rating, Goosegrass ([5]; PREEMERGENCE, Rate 500 g/ha): 100
Plant response rating, Guineagrass ([6]; POSTEMERGENCE, Rate 32 g/ha): 5
Plant response rating, Guineagrass ([6]; POSTEMERGENCE, Rate 125 g/ha): 50
Plant response rating, Guineagrass ([6]; POSTEMERGENCE, Rate 250 g/ha): 50
Plant response rating, Guineagrass ([6]; POSTEMERGENCE, Rate 500 g/ha): 90
Plant response rating, Guineagrass ([6]; PREEMERGENCE, Rate 32 g/ha): 50
Plant response rating, Guineagrass ([6]; PREEMERGENCE, Rate 64 g/ha): 50
Plant response rating, Guineagrass ([6]; PREEMERGENCE, Rate 125 g/ha): 100
Plant response rating, Guineagrass ([6]; PREEMERGENCE, Rate 250 g/ha): 100
Plant response rating, Dallisgrass ([7]; POSTEMERGENCE, Rate 32 g/ha): 10
Plant response rating, Dallisgrass ([7]; POSTEMERGENCE, Rate 64 g/ha): 40
Plant response rating, Dallisgrass ([7]; POSTEMERGENCE, Rate 125 g/ha): 70
Plant response rating, Dallisgrass ([7]; POSTEMERGENCE, Rate 250 g/ha): 90
Plant response rating, Dallisgrass ([7]; POSTEMERGENCE, Rate 500 g/ha): 95
Plant response rating, Dallisgrass ([7]; PREEMERGENCE, Rate 32 g/ha): 90
Plant response rating, Dallisgrass ([7]; PREEMERGENCE, Rate 64 g/ha): 100
Plant response rating, Dallisgrass ([7]; PREEMERGENCE, Rate 125 g/ha): 100
Plant response rating, Dallisgrass ([7]; PREEMERGENCE, Rate 250 g/ha): 100
Plant response rating, Dallisgrass ([7]; PREEMERGENCE, Rate 500 g/ha): 100
Plant response rating, Com. ragweed ([8]; Rate 32 g/ha): 100
Plant response rating, Com. ragweed ([8]; Rate 64 g/ha): 100
Plant response rating, Com. ragweed ([8]; Rate 125 g/ha): 100
Plant response rating, Com. ragweed ([8]; Rate 250 g/ha): 100
Plant response rating, Com. ragweed ([8]; Rate 500 g/ha): 100
Plant response rating, Ladysthumb [9]: 30
Plant response rating, Fall panicum ([10]; Rate 35 g/ha): 0
Plant response rating, Fall panicum ([10]; Rate 70 g/ha): 5
Plant response rating, Fall panicum ([10]; Rate 140 g/ha): 100
